Assay results from PubChem BioAssay AID1259407 (Chemical Carcinogenesis Research Information System (CCRIS), 2018).
The source made the active and inactive calls. No rule for the calls is given here.

Test system: CCRIS mutagenicity, Ames/micronucleus/aberration tests
Experiment: CCRIS mutagenicity studies
[1] = Test System: AMES SALMONELLA TYPHIMURIUM, Strain/Indicator: TA98, Metabolic Activation: NONE, Method: PREINCUBATION
[2] = Test System: AMES SALMONELLA TYPHIMURIUM, Strain/Indicator: TA1535, Metabolic Activation: NONE, Method: PREINCUBATION
[3] = Test System: AMES SALMONELLA TYPHIMURIUM, Strain/Indicator: TA1537, Metabolic Activation: NONE, Method: PREINCUBATION
[4] = Test System: AMES SALMONELLA TYPHIMURIUM, Strain/Indicator: TA98, Metabolic Activation: NONE, Method: STANDARD PLATE
[5] = Test System: AMES SALMONELLA TYPHIMURIUM, Strain/Indicator: TA100, Metabolic Activation: NONE, Method: STANDARD PLATE
[6] = Test System: AMES SALMONELLA TYPHIMURIUM, Strain/Indicator: TA100, Metabolic Activation: RAT, LIVER, S-9, AROCLOR 1254, Method: PREINCUBATION

CCCCCCC(=O)OCCN1CCN(CCCN2c3ccccc3Sc3ccc(C(F)(F)F)cc32)CC1
mutagenic call (Test System: AMES SALMONELLA TYPHIMURIUM, Strain/Indicator: TA98, Metabolic Activation: NONE): inactive; negative | mutagenic call (Test System: AMES SALMONELLA TYPHIMURIUM, Strain/Indicator: TA98, Metabolic Activation: RAT, LIVER, S-9, PHENOBARBITAL AND 5,6-BENZOFLAVONE): inactive; negative | mutagenic call (Test System: AMES SALMONELLA TYPHIMURIUM, Strain/Indicator: TA100, Metabolic Activation: NONE): inactive; negative | mutagenic call (Test System: AMES SALMONELLA TYPHIMURIUM, Strain/Indicator: TA100, Metabolic Activation: RAT, LIVER, S-9, PHENOBARBITAL AND 5,6 BENZOFLAVONE): inactive; negative | mutagenic call (Test System: AMES SALMONELLA TYPHIMURIUM, Strain/Indicator: TA1535, Metabolic Activation: NONE): inactive; negative | mutagenic call (Test System: AMES SALMONELLA TYPHIMURIUM, Strain/Indicator: TA1535, Metabolic Activation: RAT, LIVER, S-9, PHENOBARBITAL AND 5,6-BENZOFLAVONE): inactive; negative | mutagenic call (Test System: AMES SALMONELLA TYPHIMURIUM, Strain/Indicator: TA1537, Metabolic Activation: NONE): inactive; negative | mutagenic call (Test System: AMES SALMONELLA TYPHIMURIUM, Strain/Indicator: TA1537, Metabolic Activation: RAT, LIVER, S-9, PHENOBARBITAL AND 5,6-BENZOFLAVONE): inactive; negative | mutagenic call (Test System: E. COLI, Strain/Indicator: WP2 UVRA, Metabolic Activation: NONE): inactive; negative | mutagenic call (Test System: E. COLI, Strain/Indicator: WP2 UVRA, Metabolic Activation: RAT, LIVER, S-9, PHENOBARBITAL AND 5,6 BENZOFLAVONE): inactive; negative

CC(C)Br
mutagenic call (End Point: In vitro micronucleus, Test System: Chinese Hamster Ovary (CHO-WBL) cells, Metabolic Activation: None): inactive; negative | mutagenic call [1]: inactive; negative | mutagenic call (Test System: AMES SALMONELLA TYPHIMURIUM, Strain/Indicator: TA98, Metabolic Activation: RAT LIVER S-9, PHENOBARBITAL AND BETA-NAPHTHOFLAVONE, Method: PREINCUBATION): inactive; negative | mutagenic call (Test System: AMES SALMONELLA TYPHIMURIUM, Strain/Indicator: TA98, Metabolic Activation: RAT, LIVER, S-9, PHENOBARBITAL AND 5,6-BENZOFLAVONE, Method: PREINCUBATION): inactive; negative | mutagenic call (Test System: AMES SALMONELLA TYPHIMURIUM, Strain/Indicator: TA100, Metabolic Activation: RAT, LIVER, S-9, PHENOBARBITAL AND 5,6-BENZOFLAVONE, Method: PREINCUBATION): active; positive | mutagenic call [2]: active; positive | mutagenic call (Test System: AMES SALMONELLA TYPHIMURIUM, Strain/Indicator: TA1535, Metabolic Activation: RAT LIVER S-9, PHENOBARBITAL AND BETA-NAPHTHOFLAVONE, Method: PREINCUBATION): active; positive | mutagenic call (Test System: AMES SALMONELLA TYPHIMURIUM, Strain/Indicator: TA1535, Metabolic Activation: RAT, LIVER, S-9, PHENOBARBITAL AND 5,6-BENZOFLAVONE, Method: PREINCUBATION): active; positive | mutagenic call [3]: inactive; negative | mutagenic call (Test System: AMES SALMONELLA TYPHIMURIUM, Strain/Indicator: TA1537, Metabolic Activation: RAT LIVER S-9, PHENOBARBITAL AND BETA-NAPHTHOFLAVONE, Method: PREINCUBATION): inactive; negative | mutagenic call (Test System: AMES SALMONELLA TYPHIMURIUM, Strain/Indicator: TA1537, Metabolic Activation: RAT, LIVER, S-9, PHENOBARBITAL AND 5,6-BENZOFLAVONE, Method: PREINCUBATION): inactive; negative | mutagenic call (Test System: E. COLI, Strain/Indicator: WP2 UVRA, Metabolic Activation: NONE, Method: PREINCUBATION): inactive; negative | mutagenic call (Test System: E. COLI, Strain/Indicator: WP2 UVRA, Metabolic Activation: RAT, LIVER, S-9, PHENOBARBITAL AND 5,6-BENZOFLAVONE, Method: PREINCUBATION): inactive; negative

CCCCCCCCCCCCN(C)N=O
mutagenic call (Test System: AMES SALMONELLA TYPHIMURIUM, Strain/Indicator: TA100, Metabolic Activation: RAT, LIVER, S-9, KC500 OR PHENOBARBITAL, Method: LIQUID SUSPENSION): active; positive

Cc1c(-c2ccccc2)oc2c(C(=O)OCCN3CCCCC3)cccc2c1=O
mutagenic call [4]: inactive; negative | mutagenic call (Test System: AMES SALMONELLA TYPHIMURIUM, Strain/Indicator: TA98, Metabolic Activation: S-9, Method: STANDARD PLATE): inactive; negative | mutagenic call [5]: inactive; negative | mutagenic call (Test System: AMES SALMONELLA TYPHIMURIUM, Strain/Indicator: TA100, Metabolic Activation: S-9, Method: STANDARD PLATE): inactive; negative | mutagenic call (Test System: AMES SALMONELLA TYPHIMURIUM, Strain/Indicator: TA1535, Metabolic Activation: NONE, Method: STANDARD PLATE): inactive; negative | mutagenic call (Test System: AMES SALMONELLA TYPHIMURIUM, Strain/Indicator: TA1535, Metabolic Activation: S-9, Method: STANDARD PLATE): inactive; negative | mutagenic call (Test System: AMES SALMONELLA TYPHIMURIUM, Strain/Indicator: TA1537, Metabolic Activation: NONE, Method: STANDARD PLATE): inactive; negative | mutagenic call (Test System: AMES SALMONELLA TYPHIMURIUM, Strain/Indicator: TA1537, Metabolic Activation: S-9, Method: STANDARD PLATE): inactive; negative | mutagenic call (Test System: AMES SALMONELLA TYPHIMURIUM, Strain/Indicator: TA1538, Metabolic Activation: NONE, Method: STANDARD PLATE): inactive; negative | mutagenic call (Test System: AMES SALMONELLA TYPHIMURIUM, Strain/Indicator: TA1538, Metabolic Activation: S-9, Method: STANDARD PLATE): inactive; negative

O=C(/C=C/c1ccc(O)cc1)c1ccc(O)cc1O
mutagenic call (Test System: Ames Salmonella typhimurium, Strain/Indicator: TA102, Metabolic Activation: None, Method: Preincubation): inactive; negative | mutagenic call (Test System: Ames Salmonella typhimurium, Strain/Indicator: TA102, Metabolic Activation: Rat, Liver, S-9, Aroclor 1254 in 0.154 M KCl, Method: Preincubation): active; positive

NNC(=O)NC(=O)NN
mutagenic call (Test System: E. COLI WP2, Strain/Indicator: WP2, Metabolic Activation: NONE, Method: STANDARD PLATE): active; positive

Oc1ccc2c3cc4ccccc4cc3c3ccccc3c2c1O
mutagenic call [6]: active; positive

Cc1ccccc1C
mutagenic call (Test System: AMES SALMONELLA TYPHIMURIUM, Strain/Indicator: TA98, Metabolic Activation: HAMSTER, LIVER, S-9, AROCLOR 1254, Method: PREINCUBATION): inactive; negative | mutagenic call [1]: inactive; negative | mutagenic call [4]: inactive; negative | mutagenic call (Test System: AMES SALMONELLA TYPHIMURIUM, Strain/Indicator: TA98, Metabolic Activation: RAT, LIVER, S-9, AROCLOR 1254, Method: PREINCUBATION): inactive; negative | mutagenic call (Test System: AMES SALMONELLA TYPHIMURIUM, Strain/Indicator: TA98, Metabolic Activation: RAT, LIVER, S-9, AROCLOR, Method: STANDARD PLATE): inactive; negative | mutagenic call (Test System: AMES SALMONELLA TYPHIMURIUM, Strain/Indicator: TA100, Metabolic Activation: HAMSTER, LIVER, S-9, AROCLOR 1254, Method: PREINCUBATION): inactive; negative | mutagenic call (Test System: AMES SALMONELLA TYPHIMURIUM, Strain/Indicator: TA100, Metabolic Activation: NONE, Method: PREINCUBATION): inactive; negative | mutagenic call [5]: inactive; negative | mutagenic call [6]: inactive; negative | mutagenic call (Test System: AMES SALMONELLA TYPHIMURIUM, Strain/Indicator: TA100, Metabolic Activation: RAT, LIVER, S-9, AROCLOR, Method: STANDARD PLATE): inactive; negative | mutagenic call (Test System: AMES SALMONELLA TYPHIMURIUM, Strain/Indicator: TA1535, Metabolic Activation: HAMSTER, LIVER, S-9, AROCLOR 1254, Method: PREINCUBATION): inactive; negative | mutagenic call [2]: inactive; negative | mutagenic call (Test System: AMES SALMONELLA TYPHIMURIUM, Strain/Indicator: TA1535, Metabolic Activation: RAT, LIVER, S-9, AROCLOR 1254, Method: PREINCUBATION): inactive; negative | mutagenic call (Test System: AMES SALMONELLA TYPHIMURIUM, Strain/Indicator: TA1537, Metabolic Activation: HAMSTER, LIVER, S-9, AROCLOR 1254, Method: PREINCUBATION): inactive; negative | mutagenic call [3]: inactive; negative | mutagenic call (Test System: AMES SALMONELLA TYPHIMURIUM, Strain/Indicator: TA1537, Metabolic Activation: RAT, LIVER, S-9, AROCLOR 1254, Method: PREINCUBATION): inactive; negative | mutagenic call (Test System: AMES SALMONELLA TYPHIMURIUM, Strain/Indicator: UTH8413, Metabolic Activation: NONE, Method: STANDARD PLATE): inactive; negative | mutagenic call (Test System: AMES SALMONELLA TYPHIMURIUM, Strain/Indicator: UTH8413, Metabolic Activation: RAT, LIVER, S-9, AROCLOR, Method: STANDARD PLATE): inactive; negative | mutagenic call (Test System: AMES SALMONELLA TYPHIMURIUM, Strain/Indicator: UTH8414, Metabolic Activation: NONE, Method: STANDARD PLATE): inactive; negative | mutagenic call (Test System: AMES SALMONELLA TYPHIMURIUM, Strain/Indicator: UTH8414, Metabolic Activation: RAT, LIVER, S-9, AROCLOR, Method: STANDARD PLATE): inactive; negative
